The target in one test is T1, heparanase (Homo sapiens, UniProt Q9Y251).
T1 sequence (Q9Y251 158-543 limits assumed): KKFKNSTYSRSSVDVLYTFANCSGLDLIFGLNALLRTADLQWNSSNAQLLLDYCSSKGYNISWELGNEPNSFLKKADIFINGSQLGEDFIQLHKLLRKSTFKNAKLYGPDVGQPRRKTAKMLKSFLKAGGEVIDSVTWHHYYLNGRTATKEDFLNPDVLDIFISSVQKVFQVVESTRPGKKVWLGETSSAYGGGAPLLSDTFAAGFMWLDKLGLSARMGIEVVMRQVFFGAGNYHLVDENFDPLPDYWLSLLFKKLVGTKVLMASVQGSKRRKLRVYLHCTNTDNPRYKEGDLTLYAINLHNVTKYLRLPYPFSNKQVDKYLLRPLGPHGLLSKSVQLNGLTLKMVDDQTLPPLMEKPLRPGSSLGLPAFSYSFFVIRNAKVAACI
T1 sequence (Q9Y251 36-109 limits assumed): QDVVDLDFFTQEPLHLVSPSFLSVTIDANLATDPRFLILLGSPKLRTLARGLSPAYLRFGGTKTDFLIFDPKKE
Kind of test: AGA*IA assay: heparanase-catalyzed fondaparinux cleavage, colorimetric (WST-1). The test is classed as biochemical. How it is done:
All compounds were tested in a simple, accurate and robust microplate assay based on the cleavage of the synthetic heparin fragment, the pentasaccharide Fondaparinux (AGA*IA). This assay was originally developed by Hammond and coworkers (Hammond E, Li CP, Ferro V. Development of a colorimetric assay for heparanase activity suitable for kinetic analysis and inhibitor screening. Anal. Biochem. 396(1), 112-116 (2010)), where Fondaparinux corresponds to the methyl glycoside of the antithrombin III (ATIII)-activating pentasaccharide sequence of heparin. Fondaparinux is cleaved by heparanase to generate a reducing disaccharide, which can be quantitatively measured via a colorimetric or a fluorescence assay, the last by the fluorescent sensor polymer-H [Schiemann S, Lühn S, Alban S. Development of both colorimetric and fluorescence heparinase activity assays using fondaparinux as substrate. Anal. Biochem. 427(1), 82-89 (2012)].
The assay measures the appearance of the disaccharide product of heparanase-catalyzed fondaparinux cleavage colorimetrically using the tetrazolium salt WST-1. Assay was essentially performed as described with minor modifications. Briefly, NUNC ELISA 96-well plates were pre-treated with a solution of 4% BSA (bovin serum albumin) in phosphate-buffered saline containing 0.05% Tween 20 (PBST), for 2 h at 37°C, then washed three times with PBST, dried by tapping on paper towel and stored at -20°C. Before use, once again, the plates were washed with PBST.
Assay was carried out with 100 µl/well of assay solution containing 40 mM sodium acetate buffer (pH 5.0), 100 µM fondaparinux, 2.5 nM heparanase and serial dilutions of test compounds (tested in triplicate). Plates were sealed with adhesive tape and incubated, in the dark, for 3 h at 37°C, followed by development with 1.69 mM of the tetrazolium salt WST-1 solution in 0.1 M NaOH, for 1 h at 60°C. Then, the absorbance at 560 nm was measured through a microplate reader (Victor 3, Perkin Elmer).
Finally, the measurements were corrected by subtracting both the reagent background and the inner absorbance value of test compound.
(Tetrazolium assays rely on reduction of a dye to a coloured formazan, in cell work by metabolically active cells.)

The test system of test [1] is HT1080 (human fibrosarcoma). The test is described as follows: SRB Cell Cytotoxicity Assay (cell proliferation, 72h). The test is classed as cell-based. As to conditions: read-out: Concentration (µM) of test compounds at which the cell growth is inhibited by 50 %. HT1080. As to the method:
(§1) SRB Cell Cytotoxicity Assay is an assay based upon the quantitative staining of cellular proteins by sulforhodamine B (SRB). This assay can be used for high-throughput drug screening ([…], Nature Protocol. 2006, 1, 112). Sulforhodamine B is an anionic aminoxanthene dye that forms an electrostatic complex with the basic amino acid residues of proteins under moderately acid conditions, which provides a sensitive linear response. […] Inhibition of cell proliferation was then measured by the classical colorimetric SRB Cell Cytotoxicity assay. Absorbance was measured by spectrophotometer at a wavelength of 510 nm and cell proliferation was determined as percent with respect to control cells (cells treated with the vehicle alone). EC50 values were then determined by GraphPad Prism.

Test [2] concerns U2OS (human osteosarcoma). The test is described as above. The test is classed as cell-based. Particulars: read-out: Concentration (µM) of test compounds at which the cell growth is inhibited by 50 %. U2OS. How it is done: as §1
The test system of test [3] is U87MG (human glioblastoma astrocytoma). The description is as above. Particulars: U-87 MG, read-out: Concentration (µM) of test compounds at which the cell growth is inhibited by 50 %. U87MG. The format is cell-based. How it is done: as §1
In test [4] the test system is HT1080 (human fibrosarcoma). Kind of test: Matrigel cell invasion assay. The test is classed as cell-based. Particulars: for inhibition at 2.5 µM: HT-1080, read-out: Invasion Assay Inhibition HT1080. How it is done:
(§2) Heparanase inhibitors were then evaluated for their activity on the invasive potential of HT1080 (human fibrosarcoma), U87MG (human glioblastoma astrocytoma) and U2OS (human osteosarcoma) human cell lines, using the Matrigel cell invasion assay which allows to assess the cell invasion ability of malignant and normal cells.
(§3) Invasion assay was performed using BioCoat cell culture inserts (BioCoat 8.0µm PET Membrane 24 Well Permeable Supports, Corning). Filters were coated with 100 µl of 300 µg/ml Matrigel dissolved in coating buffer (0.01 M Tris pH 8.0, 0.7% NaCl) (Becton-Dickinson Sciences). DMEM (Dulbecco's Modified Eagle's Medium) containing 5% FBS was added to the lower chambers. Cells were pre-treated with heparanase inhibitors for 24 h, detached and added to the upper chambers in media containing the inhibitors. Cells were allowed to invade for 24 h at 37°C in a CO2 incubator and then unmigrated cells were removed from the upper chamber with a cotton swab. The invading cells were fixed, stained with 0.1% crystal violet for 10 min at room temperature, photographed and counted under inverted microscope.
(§4) Test compounds were analyzed at fixed concentration (2.5 µM) for several fields, in duplicates. Activity of test compounds was compared to the reference compound. Activity of most interesting compound was confirmed in a second cell invasion assay. Data were expressed as the percent invasion with respect to cell migration through uncoated insert membrane.
(§5) Table 3. […] In Invasion assay, data were expressed as the percent invasion (range) with respect to cell migration through uncoated insert membrane. In Adhesion assay, data were expressed as the percent of adhesion with respect to the control (100%).

In test [5] the test system is U2OS (human osteosarcoma). The test is described as follows: Matrigel cell invasion assay. The format is cell-based. Particulars: for inhibition at 2.5 µM: Homo sapiens, read-out: Invasion Assay Inhibition U2OS. As to the method: as §2, §3, §4, §5
Test [6] has as its system U87MG (human glioblastoma astrocytoma). The test is described as follows: Matrigel cell invasion assay. The format is cell-based. As to conditions: for inhibition at 2.5 µM: Homo sapiens, U-87 MG, read-out: Invasion Assay Inhibition U87MG. As to the method:
as §2, §3, §4, §5

Test [7] deals with HT1080 (human fibrosarcoma). Kind of test: Cell adhesion assay on matrigel coated wells. The format is cell-based. As to conditions: percent of adhesion with respect to the control (100%). As to the method: (§6) Cell surface, non-integrin molecules such as heparan sulfate proteoglycans (HSPGs) may be involved in the regulation of early adhesive stages of cell-ECM interactions. A cell adhesion assay has been employed to determine if the newly designed heparanase inhibitors were able to interfere with adhesion properties of cancer cells.
(§7) HT1080 (human fibrosarcoma) and U87MG (human glioblastoma astrocytoma) cells were treated for 18-20 h with test compounds in complete medium supplemented with 10% FCS. Then cells were collected, washed in complete medium, and added to matrigel coated wells in triplicate, at previously identified optimal seeding density, and incubated at 37 °C in complete medium for times ranging from 15 minutes to 4h, according to the cell line. After incubation, the wells were washed three times with serum-free medium and the remaining firmly attached cells were stained with crystal-violet 0.1%. Optical density was measured at 560 nm by Victor 3 (Perkin-Elmer) plate analyzer. Each experiment was repeated three times.
as §5

The test system of test [8] is U87MG (human glioblastoma astrocytoma). Kind of test: Cell adhesion assay on matrigel coated wells. The format is cell-based. Particulars: percent of adhesion with respect to the control (100%). How it is done:
as §6, §7, §5

Setting [9] is: AGA*IA screening, read-out: anti-heparanase activity.
The mark [10] stands for this setting: Table 1, range activity classes, AGA*IA test on Fondaparinux, read-out: AGAIA assay IC50.
The mark [11] stands for this setting: Table 2, classes as in Table 1, read-out: AGA*IA assay.

pIC50: −log10 of the molar value. Structures can show the parent of a compound that is named as a salt. Where two headings read alike, the source gives them in different places. Some results are limits rather than exact numbers.

We go through five compounds from EP3381898A1, “SYMMETRICAL TRIS-ARYL-AMIDE DERIVATIVES AND THEIR USE AS ANTI-HEPARANASE” (priority 2017, dated 2018).

Usually inhibition stands for the change of the read-out against control, counted positive when it falls. Regarding `Cn1cc(NC(=O)c2cccc(NC(=O)Nc3cccc(C(=O)Nc4cc(C(=O)Nc5cccc(CC(=O)NCC(=O)O)c5)n(C)c4)c3)c2)cc1C(=O)Nc1cccc(CC(=O)NCC(=O)O)c1` [Compound 12b, 2,2'-((2,2'-(((4,4'-((3,3'-(Carbonylbis(azanediyl))bis(benzoyl))bis(azanediyl))bis(1-methyl-1H-pyrrole-4,2-diyl-2-carbonyl))bis(azanediyl))bis(3,1-phenylene))bis(acetyl))bis(azanediyl))diacetic acid], the pIC50 on heparanase (setting [9]) was > 6.30; on heparanase (setting [10]), 6.31 to 7.30; on heparanase (setting [11]) it was 6.31 to 7.30. Further, the EC50 in test [1] (HT-1080, 72 h) is > 2.5 µM; in [2] (72 h) it was > 2.5 µM; in [3] (72 h), > 2.5 µM. Moreover, the inhibition at 2.5 µM in test [4] and in [6] was < 50% throughout. Besides, the “Invasion Assay Inhibition U2OS” value in test [5] (2.5 µM) is “-”. For the same compound, the “Adhesion Assay (%) HT1080” value in test [7] (2.5 µM) is given as 97.1%. Moreover, the “Adhesion Assay (%) U87MG” value in test [8] (2.5 µM) was determined as 16.7%.
Regarding `Cn1cc(NC(=O)c2cc(NC(=O)Nc3cc(C(=O)Nc4cc(C(=O)Nc5cccc(CC(=O)NCC(=O)O)c5)n(C)c4)cc(C(F)(F)F)c3)cc(C(F)(F)F)c2)cc1C(=O)Nc1cccc(CC(=O)NCC(=O)O)c1` [Compound 13c, Disodium 2,2'-{carbonylbis[imino[5-(trifluoromethyl)-3,1-phenylene]carbonylimino(1-methyl-1H-pyrrole-4,2-diyl)carbonylimino-3,1-phenylene(1-oxoethane-2,1-diyl)imino]}diethanoate salt], the pIC50 on heparanase (setting [9]) was > 6.30; at heparanase (setting [10]), 6.31 to 7.30; at heparanase (setting [11]), 6.31 to 7.30. Besides, the EC50 was > 2.5 µM in test [1] (HT-1080, 72 h); > 2.5 µM in test [2] (72 h); > 2.5 µM in test [3] (72 h). The inhibition at 2.5 µM in test [4] is < 50%; in [5], 50 to 90%; in [6] it was < 50%. Also, the “Adhesion Assay (%) HT1080” value in [7] (2.5 µM) came to 88.2%. Also, the “Adhesion Assay (%) U87MG” value in test [8] (2.5 µM) is reported as 22.0%.
Take `Cn1cc(NC(=O)Nc2cc(C(=O)Nc3cc(C(=O)Nc4cccc(CC(=O)N[C@@H](Cc5ccccc5)C(=O)O)c4)n(C)c3)n(C)c2)cc1C(=O)Nc1cc(C(=O)Nc2cccc(CC(=O)N[C@@H](Cc3ccccc3)C(=O)O)c2)n(C)c1` [Compound 17e, 2,2'-{carbonylbis[imino(1-methyl-1H-pyrrole-4,2-diyl)carbonylimino(1-methyl-1H-pyrrole-4,2-diyl)carbonylimino-3,1-phenylene(1-oxoethane-2,1-diyl)imino]}bis(3-phenylpropanoic acid)]: the pIC50 on heparanase (setting [10]) and at heparanase (setting [11]) was 6.00 to 6.30 throughout. Further, the EC50 in test [1] (HT-1080, 72 h) is > 2.5 µM; in [2] (72 h) it was > 2.5 µM; in test [3] (72 h) it was > 2.5 µM. The inhibition at 2.5 µM in test [4] and in test [6] was < 50% throughout. The “Invasion Assay Inhibition U2OS” value in test [5] (2.5 µM) was “-”. The “Adhesion Assay (%) HT1080” value in test [7] (2.5 µM) came to 93.2%. The “Adhesion Assay (%) U87MG” value in test [8] (2.5 µM) is given as 51.6%.
Consider `Cn1cc(NC(=O)Nc2cc(C(=O)Nc3cc(C(=O)Nc4cccc(CC(=O)NCC(=O)O)c4)n(C)c3)n(C)c2)cc1C(=O)Nc1cc(C(=O)Nc2cccc(CC(=O)NCC(=O)O)c2)n(C)c1` [Compound 18, Disodium 2,2'-{carbonylbis[imino(1-methyl-1H-pyrrole-4,2-diyl)carbonylimino(1-methyl-1H-pyrrole-4,2-diyl)carbonylimino-3,1-phenylene(1-oxoethane-2,1-diyl)imino]}diethanoate salt], for which the pIC50 on heparanase (setting [10]) and at heparanase (setting [11]) was 6.00 to 6.30 in each case. The EC50 in test [1] (HT-1080, 72 h) is > 2.5 µM; in test [2] (72 h), > 2.5 µM; in test [3] (72 h), > 2.5 µM. In addition, the inhibition at 2.5 µM in test [4] is 50 to 90%; in test [5], < 50%; in test [6], < 50%. Moreover, the “Adhesion Assay (%) HT1080” value in [7] (2.5 µM) was 86.4%. Besides, the “Adhesion Assay (%) U87MG” value in test [8] (2.5 µM) was determined as 62.9%.
Take `Cc1ccc(C(=O)Nc2ccc(S(=O)(=O)O)c3cc(S(=O)(=O)O)cc(S(=O)(=O)O)c23)cc1NC(=O)c1cccc(NC(=O)Nc2cccc(C(=O)Nc3cc(C(=O)Nc4ccc(S(=O)(=O)O)c5cc(S(=O)(=O)O)cc(S(=O)(=O)O)c45)ccc3C)c2)c1` [Suramin, reference compound]: the EC50 was > 10 µM in test [1] (HT-1080, HT1080, 72h, SRB); > 10 µM in test [2] (72h, SRB); > 10 µM in test [3] (U87MG, 72h, SRB). Moreover, the inhibition at 10 µM in [4] (HT-1080, HT1080, 10 µM (reference)) is < 50%. Also, the “Invasion Assay Inhibition U2OS” value in test [5] (10 µM (reference)) is “-”. For the same compound, the “Invasion Assay Inhibition U87MG” value in test [6] (U87MG, 10 µM (reference)) is given as “-”. Also, the “Adhesion Assay (%) HT1080” value in [7] (10 µM (reference)) is given as 100%. Besides, the “Adhesion Assay (%) U87MG” value in test [8] (10 µM (reference)) was 72.98%.
